These results are taken from patent US6875743B1, “Cell adhesion inhibitors” (Biogen, Inc., priority 1996, dated 2005).

SMILES strings stand for the structures. Numbered stars: 1 amine (or outer) side, 2 acyl side, 3 side chain; on linkers, the order of the positions; unused ones are H or OH. Square brackets hold non-standard residues; d marks the D form. Peptide text beside a SMILES is read from it. * marks the point of attachment. Fmoc = O=C(OCC1c2ccccc2-c2ccccc21)*; Quinaldoyl = O=C(c1ccc2ccccc2n1)*; X1 = O=C(Cc1ccc(N[*:1])cc1)[*:2]; NH(2-Me-phenyl) = Cc1ccccc1N*; Tic = O=C(O)[CH]1Cc2ccccc2CN1; Cha = N[CH](CC1CCCCC1)C(=O)O; PhAc = O=C(Cc1ccccc1)*; Aib = CC(C)(N)C(=O)O; CO = O=C([*:1])[*:2]; NHPh = c1ccc(N*)cc1; X3 = Cc1cccc(N*)n1 A value given as a limit tells only on which side of the number the result lay.

T1 sequence (P13612 34-1032): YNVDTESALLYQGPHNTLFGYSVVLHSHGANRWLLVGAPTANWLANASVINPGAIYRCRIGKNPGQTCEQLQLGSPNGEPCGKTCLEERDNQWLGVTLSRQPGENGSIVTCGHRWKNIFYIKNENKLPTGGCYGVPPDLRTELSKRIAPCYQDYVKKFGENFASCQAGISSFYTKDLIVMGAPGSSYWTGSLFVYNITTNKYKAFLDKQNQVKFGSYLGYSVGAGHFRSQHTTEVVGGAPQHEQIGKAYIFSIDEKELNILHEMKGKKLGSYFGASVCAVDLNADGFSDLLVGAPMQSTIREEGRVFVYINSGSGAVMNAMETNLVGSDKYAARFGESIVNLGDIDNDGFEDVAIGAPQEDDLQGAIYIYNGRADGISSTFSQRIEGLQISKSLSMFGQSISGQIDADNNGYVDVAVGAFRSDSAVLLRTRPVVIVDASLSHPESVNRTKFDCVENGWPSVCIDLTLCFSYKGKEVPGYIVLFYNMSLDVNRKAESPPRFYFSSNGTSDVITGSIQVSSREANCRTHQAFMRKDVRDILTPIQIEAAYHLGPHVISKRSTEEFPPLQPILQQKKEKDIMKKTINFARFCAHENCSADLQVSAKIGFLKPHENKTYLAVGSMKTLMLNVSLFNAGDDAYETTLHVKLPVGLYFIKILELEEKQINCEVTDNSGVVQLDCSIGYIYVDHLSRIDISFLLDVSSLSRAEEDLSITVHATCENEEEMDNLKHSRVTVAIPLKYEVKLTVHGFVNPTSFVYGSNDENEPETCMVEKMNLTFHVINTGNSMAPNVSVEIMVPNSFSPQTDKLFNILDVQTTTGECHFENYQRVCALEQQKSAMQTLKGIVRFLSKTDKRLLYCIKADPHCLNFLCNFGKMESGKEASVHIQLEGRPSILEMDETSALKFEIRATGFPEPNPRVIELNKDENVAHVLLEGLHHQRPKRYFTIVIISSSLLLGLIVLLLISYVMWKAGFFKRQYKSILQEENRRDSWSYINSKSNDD
T1 sequence (P05556 21-798): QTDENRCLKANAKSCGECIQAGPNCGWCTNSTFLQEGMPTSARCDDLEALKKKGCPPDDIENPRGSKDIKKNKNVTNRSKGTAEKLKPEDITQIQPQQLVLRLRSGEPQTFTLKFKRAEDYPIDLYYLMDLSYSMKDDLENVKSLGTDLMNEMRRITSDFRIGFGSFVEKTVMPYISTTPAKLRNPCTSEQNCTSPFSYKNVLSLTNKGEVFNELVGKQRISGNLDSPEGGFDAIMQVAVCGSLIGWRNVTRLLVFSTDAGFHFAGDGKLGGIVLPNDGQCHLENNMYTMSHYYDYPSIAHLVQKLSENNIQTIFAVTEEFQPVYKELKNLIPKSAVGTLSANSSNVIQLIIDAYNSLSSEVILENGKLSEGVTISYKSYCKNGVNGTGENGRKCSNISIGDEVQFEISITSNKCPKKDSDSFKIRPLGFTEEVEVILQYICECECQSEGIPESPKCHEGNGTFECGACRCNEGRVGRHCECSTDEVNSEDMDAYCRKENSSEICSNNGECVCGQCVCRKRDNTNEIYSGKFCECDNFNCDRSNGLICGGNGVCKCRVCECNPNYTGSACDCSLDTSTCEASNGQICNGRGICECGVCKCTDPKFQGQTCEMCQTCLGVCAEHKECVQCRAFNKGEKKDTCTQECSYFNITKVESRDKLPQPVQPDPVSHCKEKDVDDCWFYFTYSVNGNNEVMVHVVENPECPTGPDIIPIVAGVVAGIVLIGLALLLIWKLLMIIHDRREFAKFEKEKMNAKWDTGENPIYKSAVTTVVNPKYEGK

This test concerns the target T1, VLA4 (Homo sapiens, UniProt P05556+P13612).
T1 construct: endogenous in cells; host or cells: Ramos cells
The experiment in a line: Inhibition of VLA4-dependent adhesion to BSA-CS1. The class given is cell-based. To be noted: binding of BCECF-labelled Ramos cells to BSA-CS1 coated wells, 2 mM MnCl2; read-out: IC50.
For the compound `CC(C)C[C@H](NC(=O)c1ccc(C(C)C)cc1)C(=O)N[C@@H](CC(=O)O)C(=O)N[C@H](C(=O)O)C(C)C` [Compound 405], the IC50 (in general, the concentration that gives 50% inhibition) is more than 10000 nM.

Turning to `CC(C)C[C@H](NC(=O)c1coc2c1C(=O)CCC2)C(=O)N[C@@H](CC(=O)O)C(=O)N[C@H](C(=O)O)C(C)C` [Compound 371], the IC50 is 50 to 10000 nM.

Consider `Cc1ccccc1NC(=O)Nc1ccc(CC(=O)N[C@@H](CC(C)C)C(=O)N[C@@H](CC(=O)O)C(=O)N[C@H](C(N)=O)[C@@H](C)O)cc1` [Compound 235], for which the IC50 is less than 50 nM.

In the case of `COC(=O)[C@@H](CC(C)C)NC(=O)[C@H](CC(=O)O)NC(=O)[C@@H]1CCCN1C(=O)Cc1ccc(NC(=O)Nc2ccccc2C)cc1` [Compound 410], the IC50 is 50 to 10000 nM.

In the case of `Cc1ccccc1NC(=O)Nc1ccc(CC(=O)N[C@H](CC(C)C)C(=O)N[C@@H](CC(=O)O)C(=O)N[C@@H](CC(=O)O)C(N)=O)cc1` [Compound 286], the IC50 is less than 50 nM.

With `Cc1ccccc1NC(=O)Nc1ccc(CC(=O)N2CCCC2C(=O)NC(CC(=O)O)C(=O)NC(CO)C(N)=O)cc1` (stereo not drawn) [Compound 251], the IC50 is less than 50 nM.

As to `Cc1ccccc1NC(=O)Nc1ccc(CC(=O)N2CCC[C@H]2C(=O)N[C@@H](CC(=O)O)C(=O)N[C@@H](CCC(=O)O)C(N)=O)cc1` [Compound 245], the IC50 is less than 50 nM.

Take `CCCCCCNC(=O)C(NC(=O)C(CC(=O)O)NC(=O)C(CC(C)C)NC(=O)C1CCc2ccccc2N1)C(C)C` (stereo not drawn) [Compound 114]: the IC50 was more than 10000 nM.

For `Cc1ccccc1NC(=O)Nc1ccc(CC(=O)N[C@@H](CC(C)C)C(=O)N[C@@H](CCC(=O)O)C(=O)N[C@@H](CC(=O)O)C(N)=O)cc1` [Compound 310], the concentration for half-maximal inhibition (IC50) is less than 50 nM.

For `Cc1ccccc1NC(=O)Nc1ccc(CC(=O)N[C@H](CC(C)C)C(=O)N[C@@H](CC(=O)O)C(=O)N[C@@H](CC(C)C)C(N)=O)cc1` [Compound 287], the IC50 is less than 50 nM.

For the compound `Cc1ccccc1NC(=O)Nc1ccc(CC(=O)N[C@H](C(=O)N[C@@H](CC(=O)O)C(=O)N[C@@H](CC(=O)O)C(N)=O)[C@@H](C)O)cc1` [Compound 252], the IC50 was less than 50 nM.

For `Cc1ccccc1NC(=O)Nc1ccc(CC(=O)N[C@@H](CS)C(=O)N[C@@H](CC(=O)O)C(=O)N[C@H](C(N)=O)C(C)C)cc1` [Compound 274], the IC50 was less than 50 nM.

For the compound `CSCC[C@H](NC(=O)Cc1ccc(NC(=O)Nc2ccccc2C)cc1)C(=O)N[C@@H](CC(=O)O)C(=O)N[C@H](CCC(=O)O)C(N)=O` [Compound 227], the IC50 was less than 50 nM.

For `CC(C)C(NC(=O)C(CC(=O)O)NC(=O)C(NC(=O)c1cc2ccccc2cn1)C1CCCCC1)C(=O)O` (stereo not drawn) [Compound 83], the half-maximal inhibitory concentration (IC50) is more than 10000 nM.

As for `Cc1ccccc1NC(=O)Nc1ccc(CC(=O)N2CCC[C@H]2C(=O)N[C@@H](CC(=O)O)C(=O)N[C@H](C(N)=O)[C@@H](C)O)cc1` [Compound 246], the IC50 is less than 50 nM.

Regarding `CC(C)C[C@H](NC(=O)c1csc(-c2cccnc2)n1)C(=O)N[C@@H](CC(=O)O)C(=O)N[C@H](C(=O)O)C(C)C` [Compound 375], the IC50 lay within 50 to 10000 nM.

Turning to `CC(C)C(NC(=O)C(CC(=O)O)NC(=O)C(CC1CCCCC1)NC(=O)C1Cc2ccccc2CN1)C(=O)O` (stereo not drawn) [Compound 86] (H-[Tic][Cha]DV-OH; configuration not given here), the IC50 was more than 10000 nM.

For the compound `Cc1ccccc1NC(=O)Nc1ccc(CC(=O)N[C@@H](CO)C(=O)N[C@@H](CC(=O)O)C(=O)N[C@@H](CCC(=O)O)C(N)=O)cc1` [Compound 279], the 50% inhibitory concentration (IC50) is less than 50 nM.

As for `CC[C@H](C)[C@H](NC(=O)[C@@H](CC(=O)O)NC(=O)[C@H](N)C(C)C)C(=O)NCc1ccc(NC(=O)Nc2ccccc2C)cc1` [Compound 344], the half-inhibitory concentration (IC50) is more than 10000 nM.

As to `CC(C)C[C@H](NC(=O)c1c2c(nc3ccccc13)CCCC2)C(=O)N[C@@H](CC(=O)O)C(=O)N[C@H](C(=O)O)C(C)C` [Compound 391], the IC50 was more than 10000 nM.

Regarding `Cc1ccccc1NC(=O)Nc1ccc(CC(=O)N[C@@H](CCC(=O)O)C(=O)N[C@@H](CC(=O)O)C(=O)N[C@@H](CC(=O)O)C(N)=O)cc1` [Compound 263], the IC50 was less than 50 nM.

In the case of `CC(C)C[C@H](NC(=O)N1c2ccccc2CCc2ccccc21)C(=O)N[C@@H](CC(=O)O)C(=O)N[C@H](C(=O)O)C(C)C` [Compound 408], the IC50 was more than 10000 nM.

Consider `CC(C)C[C@H](NC(=O)c1ccc2ccccc2n1)C(=O)N[C@@H](CC(=O)O)C(=O)N[C@H](C(N)=O)C(C)C` [Compound 178], for which the IC50 is more than 10000 nM.

Consider `Cc1ccccc1NC(=O)Nc1ccc(CC(=O)N[C@@H](CC(C)C)C(=O)N[C@@H](CC(=O)O)C(=O)N[C@@H](CC(C)C)C(N)=O)cc1` [Compound 231], for which the IC50 is less than 50 nM.

Take `CC(C)CNC(=O)[C@@H](NC(=O)[C@H](CC(=O)O)NC(=O)[C@H](CC(C)C)NC(=O)Cc1ccc(NC(=O)Nc2ccccc2)cc1)C(C)C` [Compound 205]: the IC50 was in the range of 50 to 10000 nM.

In the case of `Cc1ccccc1NC(=O)Nc1ccc(CC(=O)N[C@H](CC(C)C)C(=O)N[C@@H](CC(=O)O)C(=O)N[C@@H](CCC(=O)O)C(N)=O)cc1` [Compound 290], the IC50 was less than 50 nM.

Turning to `Cc1ccccc1NC(=O)Nc1ccc(CC(=O)N[C@H](C(=O)N[C@@H](CC(=O)O)C(=O)N[C@H](CC(C)C)C(N)=O)[C@@H](C)O)cc1` [Compound 255], the IC50 is less than 50 nM.

On to `Cc1ccccc1NC(=O)Nc1ccc(CC(=O)N[C@@H](CCC(=O)O)C(=O)N[C@@H](CC(=O)O)C(=O)N[C@H](CC(N)=O)C(N)=O)cc1` [Compound 270], for which the IC50 was less than 50 nM.

For `Cc1ccccc1NC(=O)Nc1ccc(CC(=O)N[C@@H](CO)C(=O)N[C@@H](CC(=O)O)C(=O)N[C@H](C(N)=O)C(C)C)cc1` [Compound 277], the IC50 is less than 50 nM.

For the compound `Cc1ccccc1NC(=O)Nc1ccc(CC(=O)N[C@@H](CCC(N)=O)C(=O)N[C@@H](CC(=O)O)C(=O)N[C@H](CCC(=O)O)C(N)=O)cc1` [Compound 305], the IC50 was less than 50 nM.

Regarding `CC(C)CC(NC(=O)CCCc1ccccc1)C(=O)NC(CC(=O)O)C(=O)NCC1CCCCC1` (stereo not drawn) [Compound 25], the IC50 was more than 10000 nM.

For the compound `Cc1cccc(NC(=O)Nc2ccc(CC(=O)N[C@@H](CC(C)C)C(=O)N[C@@H](CC(=O)O)C(=O)N[C@H](C(=O)N3CCC[C@H]3C(=O)O)C(C)C)cc2)n1` [Compound 346] ({X3-CO}-[X1]LDVP-OH), the IC50 is less than 50 nM.

Regarding `Cc1ccccc1NC(=O)Nc1ccc(CC(=O)N[C@H](C(=O)N[C@@H](CC(=O)O)C(=O)N[C@H](CCC(=O)O)C(N)=O)[C@@H](C)O)cc1` [Compound 260], the IC50 is less than 50 nM.

With `CSCC[C@H](NC(=O)[C@H](CC(=O)O)NC(=O)[C@@H](CC(C)C)NC(=O)Cc1ccc(NC(=O)Nc2ccccc2C)cc1)C(N)=O` [Compound 292], the IC50 is less than 50 nM.

Turning to `CC(C)C[C@@H](NC(=O)Cc1ccc(NC(=O)Nc2ccccc2)cc1)C(=O)N[C@@H](CC(=O)O)C(=O)N[C@H](C(=O)N1CCC[C@H]1C(N)=O)C(C)C` [Compound 209] ({NHPh-CO}-[X1][dL]DVP-NH2), the IC50 lay in the range of 50 to 10000 nM.

Regarding `CC[C@H](C)[C@H](NC(=O)[C@H](CC(=O)O)NC(=O)[C@H](CC(C)C)NC(=O)Cc1ccc(NC(=O)Nc2ccccc2C)cc1)C(=O)O` [Compound 345], the IC50 is less than 50 nM.

As to `CSCC[C@H](NC(=O)[C@@H](NC(=O)[C@H](CC(=O)O)NC(=O)[C@H](CC(C)C)NC(=O)c1ccc2ccccc2n1)C(C)C)C(=O)O` [Compound 186] (Quinaldoyl-LDVM-OH), the IC50 was more than 10000 nM.

For `CC(C)C[C@H](NC(=O)OCC1c2ccccc2-c2ccccc21)C(=O)N[C@@H](CC(=O)O)C(=O)N[C@H](C(=O)O)C(C)C` [Compound 366] (Fmoc-Leu-Asp-Val-OH), the IC50 was more than 10000 nM.

Turning to `Cc1ccccc1NC(=O)Nc1ccc(CC(=O)N[C@H](CC(C)C)C(=O)N[C@@H](CC(=O)O)C(=O)N[C@@H](Cc2c[nH]c3ccccc23)C(N)=O)cc1` [Compound 295], the IC50 is less than 50 nM.

Turning to `Cc1ccccc1NC(=O)Nc1ccc(CC(=O)N[C@H](C(=O)N[C@@H](CC(C)C)C(=O)N2CCC[C@H]2C(=O)N[C@@H](CC(=O)O)C(=O)O)C(C)C)cc1` [Compound 339] ({NH(2-Me-phenyl)-CO}-[X1]VLPD-OH), the IC50 is more than 10000 nM.

Take `CCC(C)C(NC(=O)C(CC(=O)O)NC(=O)C(CC(C)C)NC(=O)c1ccc2ccccc2n1)C(=O)NC` (stereo not drawn) [Compound 57]: the IC50 lay in the range of 50 to 10000 nM.

As to `Cc1ccccc1NC(=O)Nc1ccc(CC(=O)N2CCC[C@H]2C(=O)N[C@@H](CC(=O)O)C(=O)N[C@H](CC(N)=O)C(N)=O)cc1` [Compound 248], the IC50 is less than 50 nM.

Regarding `CC(C)C[C@H](NC(=O)COc1ccc2ccccc2c1)C(=O)N[C@@H](CC(=O)O)C(=O)N[C@H](C(=O)O)C(C)C` [Compound 395], the IC50 was more than 10000 nM.

`CNC(=O)C(C)(C)NC(=O)[C@H](CC(=O)O)NC(=O)[C@H](CC(C)C)NC(=O)Cc1ccccc1` [Compound 351] (PhAc-Leu-Asp-[Aib]-NHMe): the IC50 was more than 10000 nM.

`CC(C)C[C@H](NC(=O)c1cncc(C#Cc2ccccc2)c1)C(=O)N[C@@H](CC(=O)O)C(=O)N[C@H](C(=O)O)C(C)C` [Compound 372]: the IC50 is more than 10000 nM.

As for `CC(=O)N[C@@H](Cc1ccccc1)C(=O)N[C@@H](CC(C)C)C(=O)N[C@@H](CC(=O)O)C(=O)N[C@H](C(=O)O)C(C)C` [Compound 152] (Ac-FLDV-OH), the IC50 is more than 10000 nM.

In the case of `Cc1ccccc1NC(=O)Nc1ccc(CC(=O)N[C@@H](CC(C)C)C(=O)N[C@@H](CC(=O)O)C(=O)N[C@@H](CCC(=O)O)C(N)=O)cc1` [Compound 234], the IC50 was less than 50 nM.

For `Cc1ccccc1NC(=O)Nc1ccc(CC(=O)N[C@@H](CO)C(=O)N[C@@H](CC(=O)O)C(=O)N[C@H](CCC(=O)O)C(N)=O)cc1` [Compound 283], the IC50 is less than 50 nM.

For `Cc1ccccc1NC(=O)Nc1ccc(CC(=O)N[C@H](CC(C)C)C(=O)N[C@@H](CC(=O)O)C(=O)N[C@H](C(N)=O)[C@@H](C)O)cc1` [Compound 291], the IC50 is less than 50 nM.

Take `CC(C)C[C@H](NC(=O)C1C2CC3CC(C2)CC1C3)C(=O)N[C@@H](CC(=O)O)C(=O)N[C@H](C(=O)O)C(C)C` (stereo partly drawn) [Compound 398]: the IC50 was more than 10000 nM.

Take `CC(C)C[C@H](NC(=O)CC1CC2CCC1C2)C(=O)N[C@@H](CC(=O)O)C(=O)N[C@H](C(=O)O)C(C)C` (stereo partly drawn) [Compound 390]: the IC50 was more than 10000 nM.
